Measurements taken from PubChem BioAssay (NCI).
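GI50 marks 50% less growth. TGI denotes the concentration required for complete inhibition of growth.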

Key:
Assay in all cases: NCI tumour cell line growth inhibition, 384-well format
HCT-116 colon = test system: HCT-116 colon
HOP-92 NSCLC = test system: HOP-92 NSCLC
SF-268 CNS = test system: SF-268 CNS
BT-549 breast = test system: BT-549 breast
MDA-MB-435 melanoma = test system: MDA-MB-435 melanoma
SR leukemia = test system: SR leukemia
UACC-62 melanoma = test system: UACC-62 melanoma
786-0 renal = test system: 786-0 renal
TK-10 renal = test system: TK-10 renal
OVCAR-5 ovarian = test system: OVCAR-5 ovarian
NCI-H460 NSCLC = test system: NCI-H460 NSCLC
SNB-75 CNS = test system: SNB-75 CNS
HT29 colon = test system: HT29 colon
SK-MEL-2 melanoma = test system: SK-MEL-2 melanoma
NCI-H522 lung = test system: NCI-H522 lung
CCRF-CEM leukemia = test system: CCRF-CEM leukemia
U251 glioblastoma = test system: U251 glioblastoma
SK-MEL-5 melanoma = test system: SK-MEL-5 melanoma
A498 renal = test system: A498 renal
SK-MEL-28 melanoma = test system: SK-MEL-28 melanoma
A549 NSCLC = test system: A549 NSCLC
K-562 leukemia = test system: K-562 leukemia
M14 melanoma = test system: M14 melanoma
NCI-H322M lung = test system: NCI-H322M lung
SW-620 colon = test system: SW-620 colon
SF-539 CNS = test system: SF-539 CNS
MALME-3M melanoma = test system: MALME-3M melanoma
EKVX NSCLC = test system: EKVX NSCLC
HCC-2998 colon = test system: HCC-2998 colon
CAKI-1 renal = test system: CAKI-1 renal
OVCAR-4 ovarian = test system: OVCAR-4 ovarian
LOX IMVI melanoma = test system: LOX IMVI melanoma
MDA-MB-231 breast = test system: MDA-MB-231 breast
RXF 393 renal = test system: RXF 393 renal
RPMI-8226 leukemia = test system: RPMI-8226 leukemia
MOLT-4 leukemia = test system: MOLT-4 leukemia
HL-60(TB) leukemia = test system: HL-60(TB) leukemia
COLO 205 colon = test system: COLO 205 colon
NCI-H23 lung = test system: NCI-H23 lung
SN12C renal = test system: SN12C renal
UACC-257 melanoma = test system: UACC-257 melanoma
DU-145 prostate = test system: DU-145 prostate
SK-OV-3 ovarian = test system: SK-OV-3 ovarian
HCT-15 colon = test system: HCT-15 colon
HOP-62 NSCLC = test system: HOP-62 NSCLC
MCF7 breast = test system: MCF7 breast
SNB-19 CNS = test system: SNB-19 CNS

In the case of `CC(C)C[C@H](NC(=O)[C@H](Cc1ccccc1)NC(=O)c1cnccn1)B(O)O`, the GI50 (HCT-116 colon) is reported as under 10 nM, the TGI (HCT-116 colon) is reported as under 10 nM and the GI50 (HOP-92 NSCLC) is reported as under 10 nM. For the same compound, the TGI (HOP-92 NSCLC) was under 10 nM, the GI50 (SF-268 CNS) was under 10 nM and the TGI (SF-268 CNS) was under 10 nM. It also gave a GI50 (BT-549 breast) of under 10 nM, a TGI (BT-549 breast) of under 10 nM and a GI50 (MDA-MB-435 melanoma) of under 10 nM. It also gave a TGI (MDA-MB-435 melanoma) of under 10 nM, a GI50 (SR leukemia) of under 10 nM and a TGI (SR leukemia) of under 10 nM. It also gave a GI50 (UACC-62 melanoma) of under 10 nM, a TGI (UACC-62 melanoma) of under 10 nM and a GI50 ([…]-0 renal) of under 10 nM. The TGI (786-0 renal) was under 11.3 nM, the GI50 (TK-10 renal) was under 10 nM and the TGI (TK-10 renal) was under 10 nM. It also gave a GI50 (OVCAR-5 ovarian) of under 10 nM, a TGI (OVCAR-5 ovarian) of under 16.3 nM and a GI50 (NCI-H460 NSCLC) of under 13 nM. It also gave a TGI (NCI-H460 NSCLC) of 19.9 nM, a GI50 (SNB-75 CNS) of under 10 nM and a TGI (SNB-75 CNS) of under 10 nM. The GI50 (HT29 colon) was under 10 nM, the TGI (HT29 colon) was under 10 nM and the GI50 (SK-MEL-2 melanoma) was under 10 nM. The TGI (SK-MEL-2 melanoma) was under 10 nM, the GI50 (NCI-H522 lung) was under 10 nM and the TGI (NCI-H522 lung) was under 10 nM. The GI50 (CCRF-CEM leukemia) was under 10 nM, the TGI (CCRF-CEM leukemia) was under 10 nM and the GI50 (U251 glioblastoma) was under 11.1 nM. The TGI (U251 glioblastoma) was 18.9 nM, the GI50 (SK-MEL-5 melanoma) was under 10 nM and the TGI (SK-MEL-5 melanoma) was under 10 nM. For the same compound, the GI50 (A498 renal) was under 10 nM, the TGI (A498 renal) was under 12.4 nM and the GI50 (SK-MEL-28 melanoma) was under 10 nM. For the same compound, the TGI (SK-MEL-28 melanoma) was under 10 nM, the GI50 (A549 NSCLC) was under 10 nM and the TGI (A549 NSCLC) was 62 nM. The GI50 (K-562 leukemia) was under 10 nM, the TGI (K-562 leukemia) was under 10 nM and the GI50 (M14 melanoma) was under 10 nM. It also gave a TGI (M14 melanoma) of under 10 nM, a GI50 (NCI-H322M lung) of 17.7 nM and a TGI (NCI-H322M lung) of 91.8 nM. It also gave a GI50 (SW-620 colon) of under 10 nM, a TGI (SW-620 colon) of under 10 nM and a GI50 (SF-539 CNS) of under 10 nM. It also gave a TGI (SF-539 CNS) of under 10 nM, a GI50 (MALME-3M melanoma) of under 10 nM and a TGI (MALME-3M melanoma) of under 10 nM. It also gave a GI50 (EKVX NSCLC) of under 10 nM, a TGI (EKVX NSCLC) of under 19 nM and a GI50 (HCC-2998 colon) of under 11.8 nM. The TGI (HCC-2998 colon) was under 16.5 nM, the GI50 (CAKI-1 renal) was under 10 nM and the TGI (CAKI-1 renal) was under 12 nM. It also gave a GI50 (OVCAR-4 ovarian) of under 10 nM, a TGI (OVCAR-4 ovarian) of under 10 nM and a GI50 (LOX IMVI melanoma) of under 10 nM. For the same compound, the TGI (LOX IMVI melanoma) was 15.9 nM, the GI50 (MDA-MB-231 breast) was under 10 nM and the TGI (MDA-MB-231 breast) was under 10 nM. It also gave a GI50 (RXF 393 renal) of under 10 nM, a TGI (RXF 393 renal) of under 10 nM and a GI50 (RPMI-8226 leukemia) of under 10 nM. The TGI (RPMI-8226 leukemia) was under 10 nM, the GI50 (MOLT-4 leukemia) was under 10 nM and the TGI (MOLT-4 leukemia) was under 10 nM. The GI50 (HL-60(TB) leukemia) was under 10 nM, the TGI (HL-60(TB) leukemia) was under 10 nM and the GI50 (COLO 205 colon) was under 10 nM. It also gave a TGI (COLO 205 colon) of 54 nM, a GI50 (NCI-H23 lung) of under 10 nM and a TGI (NCI-H23 lung) of under 10 nM. For the same compound, the GI50 (SN12C renal) was under 10.8 nM, the TGI (SN12C renal) was 18.9 nM and the GI50 (UACC-257 melanoma) was under 10 nM. It also gave a TGI (UACC-257 melanoma) of under 10 nM, a GI50 (DU-145 prostate) of under 10 nM and a TGI (DU-145 prostate) of under 13.8 nM. For the same compound, the GI50 (SK-OV-3 ovarian) was under 10 nM, the TGI (SK-OV-3 ovarian) was 30.3 nM and the GI50 (HCT-15 colon) was under 10 nM. The TGI (HCT-15 colon) was under 13.6 nM, the GI50 (HOP-62 NSCLC) was under 10 nM and the TGI (HOP-62 NSCLC) was under 12.5 nM. The GI50 (MCF7 breast) was under 10 nM, the TGI (MCF7 breast) was 13.9 nM and the GI50 (SNB-19 CNS) was under 10 nM. The TGI (SNB-19 CNS) was under 15.8 nM.
